Like-named read-outs stand apart in the source and are kept apart here.
Tests used:
[1] = tested on: Bovine aortic endothelial cells; assay: Aortic endothelial cell adhesion assay; type: cell-based; conditions: coating concentration 5 μg/ml, 90 minutes
Protocol: Bovine aortic encothelial cells were isolated according to the following protocol. Aortas were obtained from a local slaughterhouse, washed in cold phosphate buffered saline (PBS) (136 mM NaCI, 2.6 mM KCl, 15.2 mM Na2 HPO4, pH 7.2) and processed within 2 hours. Crude collagenase (CLS III, 125-145 units per mg dry weight, Cooper Biomedical) was used at 2 mg/ml in Dulbecco's modified Eagle's medium (DMEM) (GIBCO). The vessel was clamped at the distal end, filled with the collagenase-PBS solution and digestion was carried out for 10 minutes. The lumenal contents were harvested, followed by the addition of fresh collagenase for two additional 10-minute periods. The enzyme-cell suspensions were added to an equal volume of DMEM containing 10% fetal bovine serum (FBS) to inhibit the enzyme and spun in a centrifuge at 400×g for 10 minutes. The resulting cell pellet was resuspended in DMEM containing 10% FBS, 100 units/ml of penicillin G, 100 μg/ml of streptomycin and 100 μg/ml of crude fibroblast growth factor. Cells are cultured in 75 cm^2 flasks in a humidified 5% CO2 atmosphere at 37° C. Cultures were fed twice a week with the same medium and cells were used in assays when approximately 75% confluent. […]
Adhesion was measured using 96 well microtiter plates adsorbed with fibronectin or peptides I and II. […] The solubilized cells were then quantitated using a liquid scintillation counter. […]

[2] = Heparin-binding assay on nitrocellulose sheets
Protocol: The assay for heparin binding utilizes nitrocellulose sheets as substrata to bind peptides or proteins to be tested for heparin binding activity. Peptides I and II or intact fibronectin (fn) were solubilized in 50 mM (NH4)2 CO3 and diIuted to the concentrations indicated in FIGS. 2 and 3. Nitrocellulose sheets which had been presoaked in 50 mM NH4 CO3 were placed in a 96 well dot blot apparatus (Bethesda Research Laboratories Bethesda, Md.), and 250 μl of various concentrations of each peptide were aspirated through the wells. Each well was then washed three times with binding buffer (10 mM Tris-HCl, pH 8.0, 0.15 M NaCl), and the filters were removed and allowed to air dry overnight. The filters were then equilibriated for 5 minutes at room temperature in binding buffer which contained 10 mM CaCl2. ^3 H-heparin was then diluted to a concentration of 50,000 cpm/ml in binding buffer (with Ca^++), and nitrocellulose sheets were incubated in the presence of this mixture for 2 hours. The filters were then washed four times with binding buffer, and air dried. The individual spots of samples were cut out of the nitrocellulose and bound heparin was quantitated with a liquid scintillation counter.

[3] = tested on: K1735M4 metastatic melanoma cells; conditions: for Tumor Cell Adhesion, Adherent Cells: melanoma cells, one hour
Protocol: The cells were cultured in Dulbecco's Modified Eagle's Medium containing 5% heat inactivated fetal calf serum. The cultures were grown in 37° C. incubators with a humidified atmosphere containing 5% CO2. Cells were subcultured twice weekly by releasing cells gently from the flask, using 0.05% trypsin and 1 mM EDTA.
The melanoma cells were pulsed in the same fashion as the endothelial cells described hereinabove, except that 2 μCi/ml ^3 HTd(tritiated thymidine) was added to each culture instead of amino acids. The labeled cells were harvested as described for the endothelial cells. The cell adhesion assay was identical to that described hereinabove for the bovine aortic endothelial cell assay.

[4] = tested on: CNS neurons from spinal cords of 6-day chick embryos; assay: Neurite outgrowth assay, CNS neurons; type: cell-based
Protocol: Peptides I, II, IIa, III, CSI or intact fibronectin were diluted in Voller's buffer (0.05M Carbonate buffer, pH 9.6) and 100 μl of each concentration was dipensed into 96 well tissue culture plates in triplicate. The plates were then placed in a sterile hood overnight to evaporate the buffer and to dry the peptides onto the plate. The following morning, 200 μl of phosphate-buffered saline (PBS) containing 5 mg/ml bovine serum albumin (PBS/BSA) were added to each well and the plates were incubated for an additional 3 hours. At that point, the PBS/BSA was aspirated and cells in the appropriate media were added to each well.
Embryonic CNS nerve cell cultures were prepared by the method of Rogers et al., Devel. Biol., 98, 212-220 (1983). Briefly, spinal cords from 6-day chick embryos were isolated and their dorsal halves removed and placed Ca^++ -Mg^++ free (CMF) Hank's balanced salt solution for 10 minutes at 37° C. Only the ventral portions, containing predominantly motor neurons, were prepazed for culture. The cords were then dissociated in 0.25% trypsin (Bactotrypsin, Difco) in CMF Hanks for 25 minutes at 37° C. […] The number of neurons with neurites was quantitated by randomly sampling 10 fields with the aid of a dissecting microscope. […]

[5] = Solid phase heparin-binding assay on Immulon C plates
Protocol: Both peptides IIa and CS I were then compared for relative heparin-binding activity. Plastic Immulon C plates (Dynatech, Alexandria, Va.) were adsorbed with 100 μl in triplicate) of the indicated levels of peptides IIa, CS I or BSA as described. The ability of the 33 kD fragment to bind heparin was also determined, for comparison, although due to the relative size of this fragment compared with the peptides, different coating concentrations were used. The actual coating levels of the 33 kD fragment were 4, 20, 100 and 500 μg/ml. Following the blocking of nonspecific binding sites with BSA, the ability of these various substrata to bind ^3 H-heparin was determined by the addition of approximately 4,000 disintegrations per minute (dpm) of this ligand. All conditions of the assay were as described in U.S. patent application Ser. No. 89,073, the disclosure of which is incorporated by reference herein.
The three peptides derived from peptide Ila and intact peptide IIa, were adsorbed to Immulon C plates at the indicated concentrations (100 μl/ well) in triplicate and tested for the ability to bind ^3 H-heparin as described hereinabove. The results of this study are summarized on FIG. 5. […] Rather, a specific primary structure is crucial for this activity. […]

## Fibronectin
[1]
  Adherent Cells: 13,714 Counts Per Minute
[2]
  3H-heparin binding (in words): bound ^3 H-heparin in a concentration dependent manner
  Concentration at which maximum 3H-heparin binding was observed: 10^-6 M
[3]; coating concentration 1 μg/ml
  Tumor Cell Adhesion, Adherent Cells: 4700 Counts Per Minute
[3]; coating concentration 10 μg/ml
  Tumor Cell Adhesion, Adherent Cells: 7900 Counts Per Minute
[3]; coating concentration 50 μg/ml
  Tumor Cell Adhesion, Adherent Cells: 11,000 Counts Per Minute
[3]; coating concentration 100 μg/ml
  Tumor Cell Adhesion, Adherent Cells: 9700 Counts Per Minute

## asp-glu-leu-pro-gln-leu-val-thr-leu-pro-his-pro-asn-leu-his-gly-pro-glu-ile-leu-asp-val-pro-ser-thr [Peptide CS I, reference compound]
[4]
  Promotion of neurite extension by CNS neurons (in words): CNS neurons appeared to be preferably stimulated by peptide CS I
[5]
  3H-heparin binding (in words): failed to bind to heparin at any concentration that was tested
[3]
  Promotion of melanoma cell adhesion (in words): promoted the adhesion of melanoma cells in culture
[3]; concentration 80 μg/ml
  Melanoma Cell Adhesion, Percent Adhesion: 71.7%
[3]; concentration 400 μg/ml
  Melanoma Cell Adhesion, Percent Adhesion: 71.0%

Reference: patent US5171271A, “Polypeptides with fibronectin activity” (Regents of the University of Minnesota, priority 1991, dated 1992)
